For 49 compounds, IC50 results are on record in patent publication US9732075B2, “Benzimidazole-proline derivatives” (IDORSIA PHARMACEUTICALS LTD, priority 2012, dated 2017).

One test deals with human orexin-2 receptor (Homo sapiens (Human), UniProt O43614). As to the kind of experiment: In vitro assay: intracellular calcium measurements (FLIPR), antagonistic activity. Format: cell-based. The following applies: CHO cells expressing human orexin-2 receptor, orexin-A agonist, geometric mean, read-out: IC50 Ox2. The procedure, abridged: (§1)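 hOX1R/hOX2R CHO cells, fluo-4 AM + 5 mM probenecid, 50 min 37 °C then 30 min RT. Cpd 120 min, then orexin-A 3 nM final; FLIPR peak height vs vehicle. IC50, geometric mean of repeats.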
Chain of human orexin-2 receptor (O43614 whole entry): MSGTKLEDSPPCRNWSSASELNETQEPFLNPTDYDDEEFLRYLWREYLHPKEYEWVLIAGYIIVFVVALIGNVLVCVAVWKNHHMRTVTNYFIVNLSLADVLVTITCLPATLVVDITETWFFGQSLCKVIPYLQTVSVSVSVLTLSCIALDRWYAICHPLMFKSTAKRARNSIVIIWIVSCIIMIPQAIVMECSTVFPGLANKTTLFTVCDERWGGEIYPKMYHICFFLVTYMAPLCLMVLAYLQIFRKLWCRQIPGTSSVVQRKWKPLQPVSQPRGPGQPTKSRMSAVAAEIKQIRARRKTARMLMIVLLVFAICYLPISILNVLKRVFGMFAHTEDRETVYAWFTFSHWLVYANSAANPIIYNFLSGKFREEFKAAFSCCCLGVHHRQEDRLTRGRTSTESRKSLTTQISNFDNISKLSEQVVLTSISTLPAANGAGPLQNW

The target of another test is human orexin-1 receptor (Homo sapiens (Human), UniProt O43613). Described as above. In kind it is cell-based. The following applies: CHO cells expressing human orexin-1 receptor, orexin-A agonist, geometric mean, read-out: IC50 Ox1. The method, boiled down:
as §1

Chain of human orexin-1 receptor (O43613 whole entry): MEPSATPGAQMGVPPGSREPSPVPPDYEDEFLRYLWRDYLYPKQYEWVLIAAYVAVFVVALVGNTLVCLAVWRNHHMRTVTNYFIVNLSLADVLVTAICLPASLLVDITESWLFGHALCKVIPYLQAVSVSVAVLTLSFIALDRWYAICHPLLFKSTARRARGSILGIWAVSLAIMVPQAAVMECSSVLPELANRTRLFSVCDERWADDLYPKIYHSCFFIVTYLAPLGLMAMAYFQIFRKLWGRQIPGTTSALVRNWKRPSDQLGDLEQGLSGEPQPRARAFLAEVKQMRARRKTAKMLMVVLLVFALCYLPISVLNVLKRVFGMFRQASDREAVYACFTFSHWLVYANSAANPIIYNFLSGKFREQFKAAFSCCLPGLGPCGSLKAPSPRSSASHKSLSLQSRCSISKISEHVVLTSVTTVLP

In the case of `Cc1cccc(-c2sc(C)nc2C(=O)N2CC[C@H](C)[C@H]2c2nc3c(Cl)cccc3[nH]2)c1` [Ex. 4.122], the IC50 at human orexin-2 receptor came to 610 nM; on human orexin-1 receptor, 3 nM.
On the same counts, the results for `Cc1nc(C(=O)N2CC[C@H](C)[C@H]2c2nc3c(Cl)cccc3[nH]2)c(-c2ccc(Br)cc2)s1` [Ex. 4.123] are 871 nM and 21 nM.
The corresponding values for `Cc1ccc(-c2sc(C)nc2C(=O)N2CC[C@H](C)[C@H]2c2nc3c(Cl)cccc3[nH]2)cc1` [Ex. 4.124] are 591 nM and 8 nM.
On the same counts, the results for `Cc1nc(C(=O)N2CC[C@H](C)[C@H]2c2nc3c(Cl)cccc3[nH]2)c(-c2ccc(C)c(C)c2)s1` [Ex. 4.125] are 81 nM and 1 nM.
For the compound `Cc1nc(C(=O)N2CC[C@H](C)[C@H]2c2nc3c(Cl)cccc3[nH]2)c(-c2ccc(F)c(F)c2)s1` [Ex. 4.126], the IC50 is 2380 nM at human orexin-2 receptor and 43 nM at human orexin-1 receptor.
On the same counts, the results for `Cc1ccc(-c2sccc2C(=O)N2CC[C@H](C)[C@H]2c2nc3c(Cl)cccc3[nH]2)cc1C` [Ex. 4.127] are 19 nM and 1 nM.
`Cc1ccc(-c2sc(N(C)C)nc2C(=O)N2CC[C@H](C)[C@H]2c2nc3c(Cl)cccc3[nH]2)cc1C` [Ex. 4.128]: the IC50 stood at 387 nM at human orexin-2 receptor and 1 nM on human orexin-1 receptor.
The corresponding values for `COc1ccccc1-c1sc(C)nc1C(=O)N1CC[C@H](C)[C@H]1c1nc2c(Cl)cccc2[nH]1` [Ex. 4.129] are 2750 nM and 35 nM.
For the compound `Cc1ccc(C(=O)N2CC[C@H](C)[C@H]2c2nc3cc(Cl)c(C)cc3[nH]2)c(-c2ncccn2)c1` [Ex. 4.130], the 50% inhibitory concentration (IC50) at human orexin-2 receptor worked out at 128 nM; on human orexin-1 receptor it was 11 nM.
Take `Cc1cc2[nH]c([C@@H]3[C@@H](C)CCN3C(=O)c3cc(F)ccc3-c3ncccn3)nc2cc1Cl` [Ex. 4.131]: the IC50 on human orexin-2 receptor was 501 nM; at human orexin-1 receptor it was 23 nM.
On the same counts, the results for `Cc1cc2[nH]c([C@@H]3[C@@H](C)CCN3C(=O)c3c(-c4ncccn4)ccc(C)c3F)nc2cc1Cl` [Ex. 4.132] are 1320 nM and 87 nM.
As to `Cc1cc2[nH]c([C@@H]3[C@@H](C)CCN3C(=O)c3c(F)cccc3-c3ncccn3)nc2cc1Cl` [Ex. 4.133], the IC50 on human orexin-2 receptor was found to be 359 nM; on human orexin-1 receptor it was 25 nM.
The corresponding values for `COc1cccc(C#Cc2ccccc2C(=O)N2CC[C@H](C)[C@H]2c2nc3c(C)c(Cl)ccc3[nH]2)c1` [Ex. 4.134] are 86 nM and 1 nM.
The corresponding values for `COc1cccc(C#Cc2ccccc2C(=O)N2CC[C@H](C)[C@H]2c2nc3cc(Cl)c(C)cc3[nH]2)c1` [Ex. 4.135] are 203 nM and 4 nM.
The corresponding values for `Cc1nc(C(=O)N2CC[C@H](C)[C@H]2c2nc3cc(C(F)(F)F)ccc3[nH]2)c(-c2ccc(F)cc2)s1` [Ex. 4.136] are 4360 nM and 14 nM.
On to `COc1cccc(-c2sc(C)nc2C(=O)N2CC[C@H](C)[C@H]2c2nc3cc(C(F)(F)F)ccc3[nH]2)c1` [Ex. 4.137], for which the IC50 on human orexin-2 receptor worked out at 3090 nM; at human orexin-1 receptor it was 5 nM.
The corresponding values for `Cc1cccc(-c2sc(C)nc2C(=O)N2CC[C@H](C)[C@H]2c2nc3cc(C(F)(F)F)ccc3[nH]2)c1` [Ex. 4.138] are 1340 nM and 2 nM.
For `Cc1nc(C(=O)N2CC[C@H](C)[C@H]2c2nc3cc(C(F)(F)F)ccc3[nH]2)c(-c2ccc(Cl)cc2)s1` [Ex. 4.139], the IC50 on human orexin-2 receptor turned out to be 2260 nM; on human orexin-1 receptor it was 5 nM.
`Cc1ccc(-c2sc(C)nc2C(=O)N2CC[C@H](C)[C@H]2c2nc3cc(C(F)(F)F)ccc3[nH]2)cc1` [Ex. 4.140]: the IC50 at human orexin-2 receptor came to 2170 nM; on human orexin-1 receptor, 7 nM.
On the same counts, the results for `COc1ccc(-c2sc(C)nc2C(=O)N2CC[C@H](C)[C@H]2c2nc3cc(C(F)(F)F)ccc3[nH]2)cc1` [Ex. 4.141] are 2760 nM and 5 nM.
`Cc1nc(C(=O)N2CC[C@H](C)[C@H]2c2nc3cc(C(F)(F)F)ccc3[nH]2)c(-c2ccc(Br)cc2)s1` [Ex. 4.142]: the IC50 at human orexin-2 receptor was found to be 2160 nM; at human orexin-1 receptor it was 6 nM.
The corresponding values for `Cc1nc(C(=O)N2CC[C@H](C)[C@H]2c2nc3cc(C(F)(F)F)ccc3[nH]2)c(-c2ccc(F)c(F)c2)s1` [Ex. 4.143] are 3680 nM and 24 nM.
On the same counts, the results for `Cc1ccc(-c2sccc2C(=O)N2CC[C@H](C)[C@H]2c2nc3cc(C(F)(F)F)ccc3[nH]2)cc1C` [Ex. 4.144] are 463 nM and 9 nM.
As to `Cc1nc(C(=O)N2CC[C@H](C)[C@H]2c2nc3cc(C(F)(F)F)ccc3[nH]2)c(-c2ccccc2Cl)s1` [Ex. 4.146], the IC50 is 2110 nM on human orexin-2 receptor and 6 nM at human orexin-1 receptor.
As for `COc1ccccc1-c1sc(C)nc1C(=O)N1CC[C@H](C)[C@H]1c1nc2cc(C(F)(F)F)ccc2[nH]1` [Ex. 4.147], the IC50 at human orexin-2 receptor was 9650 nM; on human orexin-1 receptor, 13 nM.
On the same counts, the results for `Cc1nc(C(=O)N2CC[C@H](C)[C@H]2c2nc3cc(C(F)(F)F)ccc3[nH]2)c(-c2cc(F)cc(F)c2)s1` [Ex. 4.148] are 3180 nM and 7 nM.
The corresponding values for `Cc1nc(C(=O)N2CC[C@H](C)[C@H]2c2nc3c(C(F)(F)F)cccc3[nH]2)c(-c2ccc(F)cc2)s1` [Ex. 4.149] are 752 nM and 14 nM.
As to `Cc1nc(C(=O)N2CC[C@H](C)[C@H]2c2nc3c(C(F)(F)F)cccc3[nH]2)c(-c2ccc(Cl)cc2)s1` [Ex. 4.150], the IC50 on human orexin-2 receptor was 180 nM; on human orexin-1 receptor, 6 nM.
On the same counts, the results for `Cc1nc(C(=O)N2CC[C@H](C)[C@H]2c2nc3c(C(F)(F)F)cccc3[nH]2)c(-c2ccc(Br)cc2)s1` [Ex. 4.151] are 185 nM and 5 nM.
The corresponding values for `Cc1nc(C(=O)N2CC[C@H](C)[C@H]2c2nc3c(C(F)(F)F)cccc3[nH]2)c(-c2ccc(C)c(C)c2)s1` [Ex. 4.152] are 40 nM and 2 nM.
As to `Cc1nc(C(=O)N2CC[C@H](C)[C@H]2c2nc3c(C(F)(F)F)cccc3[nH]2)c(-c2ccc(F)c(F)c2)s1` [Ex. 4.154], the IC50 on human orexin-2 receptor came to 4800 nM; at human orexin-1 receptor it was 26 nM.
With `Cc1nc(C(=O)N2CC[C@H](C)[C@H]2c2nc3c(C(F)(F)F)cccc3[nH]2)c(-c2ccccc2Cl)s1` [Ex. 4.155], the values for the IC50 on human orexin-2 receptor and at human orexin-1 receptor were 891 nM and 42 nM, respectively.
On the same counts, the results for `COc1ccccc1-c1sc(C)nc1C(=O)N1CC[C@H](C)[C@H]1c1nc2c(C(F)(F)F)cccc2[nH]1` [Ex. 4.156] are 489 nM and 14 nM.
On to `Cc1nc(C(=O)N2CC[C@H](C)[C@H]2c2nc3c(C(F)(F)F)cccc3[nH]2)c(-c2cc(F)cc(F)c2)s1` [Ex. 4.157], for which the IC50 stood at 1710 nM at human orexin-2 receptor and 13 nM on human orexin-1 receptor.
On the same counts, the results for `Cc1cccc(-c2sc(C)nc2C(=O)N2CC[C@H](C)[C@H]2c2nc3c(C(F)(F)F)cccc3[nH]2)c1` [Ex. 4.158] are 308 nM and 2 nM.
As for `COc1ccc(-c2sc(C)nc2C(=O)N2CC[C@H](C)[C@H]2c2nc3c(C(F)(F)F)cccc3[nH]2)cc1` [Ex. 4.159], the figures for the IC50 at human orexin-2 receptor and on human orexin-1 receptor were 215 nM and 4 nM, respectively.
Take `Cc1ccc(-c2sccc2C(=O)N2CC[C@H](C)[C@H]2c2nc3c(C(F)(F)F)cccc3[nH]2)cc1C` [Ex. 4.160]: the IC50 turned out to be 27 nM on human orexin-2 receptor and 2 nM at human orexin-1 receptor.
On the same counts, the results for `Cc1ccc(-c2ccccn2)c(C(=O)N2CC[C@H](C)[C@H]2c2nc3c(C)c(Cl)ccc3[nH]2)c1` [Ex. 4.161] are 191 nM and 2 nM.
On the same counts, the results for `Cc1c(Cl)ccc2[nH]c([C@@H]3[C@@H](C)CCN3C(=O)c3cc(Cl)ccc3-c3ccccc3)nc12` [Ex. 4.162] are 299 nM and 2 nM.
The corresponding values for `Cc1ccc(-c2cccnc2)c(C(=O)N2CC[C@H](C)[C@H]2c2nc3c(C)c(Cl)ccc3[nH]2)c1` [Ex. 4.163] are 4400 nM and 20 nM.
For `Cc1c(Cl)ccc2[nH]c([C@@H]3[C@@H](C)CCN3C(=O)c3cc(F)ccc3-c3ccccc3)nc12` [Ex. 4.164], the IC50 on human orexin-2 receptor was determined as 725 nM; at human orexin-1 receptor, 7 nM.
On to `Cc1c(Cl)ccc2[nH]c([C@@H]3[C@@H](C)CCN3C(=O)c3cc(F)ccc3-c3ccccn3)nc12` [Ex. 4.165], for which the IC50 came to 968 nM on human orexin-2 receptor and 20 nM at human orexin-1 receptor.
The corresponding values for `Cc1c(Cl)ccc2[nH]c([C@@H]3[C@@H](C)CCN3C(=O)c3cc(C#N)ccc3-c3ccccc3)nc12` [Ex. 4.166] are 568 nM and 2 nM.
The corresponding values for `Cc1ccc(C(=O)N2CC[C@H](C)[C@H]2c2nc3c(C)c(Cl)ccc3[nH]2)c(-c2ccccn2)c1` [Ex. 4.167] are 144 nM and 13 nM.
As to `Cc1ccc(C(=O)N2CC[C@H](C)[C@H]2c2nc3c(C)c(Cl)ccc3[nH]2)c(-c2ccccc2)c1` [Ex. 4.168], the IC50 on human orexin-2 receptor was determined as 486 nM; at human orexin-1 receptor, 10 nM.
The corresponding values for `Cc1c(Cl)ccc2[nH]c([C@@H]3[C@@H](C)CCN3C(=O)c3c(F)cccc3-c3ccccc3)nc12` [Ex. 4.169] are 892 nM and 4 nM.
Regarding `Cc1c(Cl)ccc2[nH]c([C@@H]3[C@@H](C)CCN3C(=O)c3cc(C(F)(F)F)ccc3-c3ccccc3)nc12` [Ex. 4.170], the figures for the IC50 at human orexin-2 receptor and at human orexin-1 receptor were 1430 nM and 11 nM, respectively.
The corresponding values for `Cc1ccc(-c2ccccc2)c(C(=O)N2CC[C@H](C)[C@H]2c2nc3c(C)c(Cl)ccc3[nH]2)c1F` [Ex. 4.171] are 571 nM and 1.5 nM.
The corresponding values for `Cc1ccc(-c2ccccc2)c(C(=O)N2CC[C@H](C)[C@H]2c2nc3c(C)c(Cl)ccc3[nH]2)c1` [Ex. 4.172] are 457 nM and 2 nM.
